Article PMC9908766, “Characterizing metabolic drivers of Clostridioides difficile infection with activity-based hydrazine probes” (Frontiers in Pharmacology, 2023)

Target: T1, D-proline reductase (PR), PrdA subunit (Clostridioides difficile, UniProt Q17ZY9)
T1 construct: native PR complex purified from C. difficile VPI 10463; processed PrdA (~23 kDa) with N-terminal pyruvoyl; with PrdB
Experiment: fluorometric OPA assay of 5-aminovalerate production by purified PR
Assay type: biochemical

## NNCCc1ccccc1 [compound 5, phenelzine]
  IC50: 460 ± 30 µM
